Measurements reported in PMC8320071 (ACS Omega, 2021).

Columns and labels:
[1] = target: T1, leucine aminopeptidase from Leishmania donovani (LdLAP) (Leishmania donovani, UniProt A0A3S7WXR2); assay: Leu-AMC fluorogenic aminopeptidase assay with double-reciprocal plots; format: biochemical
T1 sequence (A0A3S7WXR2 1-565): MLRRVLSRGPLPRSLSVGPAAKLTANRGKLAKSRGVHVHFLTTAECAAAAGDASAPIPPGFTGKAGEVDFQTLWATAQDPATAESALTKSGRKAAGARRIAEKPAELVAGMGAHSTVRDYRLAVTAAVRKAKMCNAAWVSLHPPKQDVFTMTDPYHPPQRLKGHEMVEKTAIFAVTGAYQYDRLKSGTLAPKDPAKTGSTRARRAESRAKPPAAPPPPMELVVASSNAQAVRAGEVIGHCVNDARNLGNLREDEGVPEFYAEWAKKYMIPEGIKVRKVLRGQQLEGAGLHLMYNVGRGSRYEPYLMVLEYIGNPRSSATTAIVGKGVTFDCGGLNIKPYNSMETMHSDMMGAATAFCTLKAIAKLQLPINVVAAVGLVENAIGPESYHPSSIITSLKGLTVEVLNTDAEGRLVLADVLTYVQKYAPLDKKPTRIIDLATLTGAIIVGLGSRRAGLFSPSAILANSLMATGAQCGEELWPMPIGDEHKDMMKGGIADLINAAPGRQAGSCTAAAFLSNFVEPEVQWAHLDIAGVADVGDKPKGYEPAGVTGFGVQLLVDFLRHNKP

purified protein = substrate: Cc1cc(=O)oc2cc(NC(=O)[C@@H](N)CC(C)C)ccc12; assay: purified protein; details: Mn(II)

## CC(C)C[C@H](NC(=O)[C@@H](O)[C@H](N)Cc1ccccc1)C(=O)O [bestatin]
[1]
  Ki: 4.38 nM

## CCCCC[C@H](CC(=O)NO)C(=O)N[C@H](C(=O)N1CCC[C@H]1CO)C(C)C [actinonin]
[1]
  Ki: 2.7 nM

B1: leucine aminopeptidase from Leishmania donovani (LdLAP) (Leishmania donovani) (protein)
chain: MLRRVLSRGPLPRSLSVGPAAKLTANRGKLAKSRGVHVHFLTTAECAAAAGDASAPIPPGFTGKAGEVDFQTLWATAQDPATAESALTKSGRKAAGARRIAEKPAELVAGMGAHSTVRDYRLAVTAAVRKAKMCNAAWVSLHPPKQDVFTMTDPYHPPQRLKGHEMVEKTAIFAVTGAYQYDRLKSGTLAPKDPAKTGSTRARRAESRAKPPAAPPPPMELVVASSNAQAVRAGEVIGHCVNDARNLGNLREDEGVPEFYAEWAKKYMIPEGIKVRKVLRGQQLEGAGLHLMYNVGRGSRYEPYLMVLEYIGNPRSSATTAIVGKGVTFDCGGLNIKPYNSMETMHSDMMGAATAFCTLKAIAKLQLPINVVAAVGLVENAIGPESYHPSSIITSLKGLTVEVLNTDAEGRLVLADVLTYVQKYAPLDKKPTRIIDLATLTGAIIVGLGSRRAGLFSPSAILANSLMATGAQCGEELWPMPIGDEHKDMMKGGIADLINAAPGRQAGSCTAAAFLSNFVEPEVQWAHLDIAGVADVGDKPKGYEPAGVTGFGVQLLVDFLRHNKP
Purified protein
  Km: 57.29 µM
  kcat/Km: 5820 M⁻¹ s⁻¹
